Experimental data published in ChEMBL document CHEMBL1143120, “Characterization of the two major CYP450 metabolites of ozonide (1,2,4-trioxolane) OZ277” (Bioorg Med Chem Lett, 2008).
In brackets after ≈: the same amount, converted by molar mass.

Columns and labels:
Plasmodium falciparum = test: Antimalarial activity against Plasmodium falciparum K1; format: functional, organism-based
[1] = Distribution coefficient, log D of the compound; format: physicochemical; conditions: octanol/water

CC(C)(N)CNC(=O)C[C@H]1CC[C@]2(CC1)OO[C@]1(O2)C2CC3CC1C[C@](O)(C3)C2
IC50 (Plasmodium falciparum): > 0.1 µg/mL
logD [1]: 1.8

CC(C)(N)CNC(=O)C[C@H]1CC[C@]2(CC1)OO[C@]1(O2)C2CC3CC(C2)CC1C3 [OZ277]
IC50 (Plasmodium falciparum): 0.001 µg/mL (≈ 0.00255 µM)
logD [1]: 3.2

CC(C)(N)CNC(=O)C[C@H]1CC[C@]2(CC1)OO[C@]1(O2)C2CC3CC1C[C@@](O)(C3)C2
IC50 (Plasmodium falciparum): > 0.1 µg/mL
logD [1]: 1.8
